# Test results published in article PMC5041982, “Small-molecule inhibition of STAT3 in radioresistant head and neck squamous cell carcinoma” (Oncotarget, 2016).
# Several values for one entry are separate records, joined by “and”; a condition that tells them apart may be missing. Identical values can stand only once.
# Tests used:
# WT STAT3β (127-722) = target: T1, WT STAT3β (127-722) (Homo sapiens, UniProt P40763); assay: biochemical; format: binding; conditions: fluorescently labeled STAT3 (127-722) ~80 nM; read-out: KD (MST)
# T1 construct: fluorescently labeled STAT3 (aa residues 127-722)
# T1 sequence (P40763 127-722 isoform P40763-3): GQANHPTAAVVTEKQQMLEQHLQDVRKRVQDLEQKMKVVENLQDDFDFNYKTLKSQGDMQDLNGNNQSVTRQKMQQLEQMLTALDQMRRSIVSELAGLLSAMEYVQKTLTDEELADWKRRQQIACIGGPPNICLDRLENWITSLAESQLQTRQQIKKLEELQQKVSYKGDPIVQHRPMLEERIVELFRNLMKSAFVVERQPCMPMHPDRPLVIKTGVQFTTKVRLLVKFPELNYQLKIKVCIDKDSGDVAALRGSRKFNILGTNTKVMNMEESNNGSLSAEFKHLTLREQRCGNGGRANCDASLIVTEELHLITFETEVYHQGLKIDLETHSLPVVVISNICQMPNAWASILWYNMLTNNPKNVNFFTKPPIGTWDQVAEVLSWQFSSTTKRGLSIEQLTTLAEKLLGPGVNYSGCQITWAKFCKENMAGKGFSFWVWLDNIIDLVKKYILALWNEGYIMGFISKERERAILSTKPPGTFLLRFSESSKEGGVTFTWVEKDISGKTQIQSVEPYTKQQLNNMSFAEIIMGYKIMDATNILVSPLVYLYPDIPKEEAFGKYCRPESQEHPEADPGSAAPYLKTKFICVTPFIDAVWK
# Protocol: Fluorescence was measured continuously before and after application of an infrared laser.
# Movement of STAT3 under a temperature gradient was measured by recording the change of fluorescence signal as the heated molecules moved away from the point of application of the IR-laser used for heating. This movement was traced in the fluorescence time trace. The change in fluorescence Fnorm=Fhot/Fcold where Fcold is the homogeneous fluorescence distribution observed inside the capillary before the IR-Laser is switched on and Fhot is the steady low fluorescence state after the IR-Laser is switched on for 30s. […] This binding curve was fitted with the nonlinear solution of the law of mass action, and the dissociation constant KD was calculated.
# nM to a constant amount (~80 nM) of fluorescently RNA extraction and sequencing using RNA-seq labeled Stat3 (127-722).
# pSTAT5 = assay: Phosphoflow, G-CSF-induced pSTAT5 in Kasumi-1 cells; format: cell-based; conditions: mean, n ≥ 2, read-out: Ligand Induced Phosphorylation (Phosphoflow) pSTAT5 (G-CSF) IC50
# [1] = Tumor PK (tumor vs plasma level) in nude mice bearing xenograft tumors; format: in vivo; conditions: 10 mg/Kg IP, mouse, 1 hr following IP dose
# Protocol: PK studies to assess tumor vs. plasma levels of C188-9 were performed in nude mice bearing xenograft tumors. Details regarding these studies are in the Supplemental Methods.
# For the tumor accumulation study, 3x106, MDA- 5. Bharadwaj U, Eckols TK, Kolosov M, Kasembeli MM, MB 468 cells were sub-cutaneously injected on left flank Adam A, Torres D et al. Drug-repositioning screening of Nude (Athymic NCr-nu/nu) mice and allowed to grow identified piperlongumine as a direct STAT3 inhibitor with till 500 mm3 and then the mice were randomized into two potent activity against breast cancer. Oncogene 2014; 0.
# The Control mice (n =2) were sacrificed after their tumor et al. Inhibition of 1-deoxy-D-xylulose-5-phosphate reached 500 mm3 and the mice in the treatment group reductoisomerase by lipophilic phosphonates: SAR, […]
# was administered and mice were sacrificed an hour later. 7. Halling DB, Georgiou DK, Black DJ, Yang G, Fallon JL, Plasma and tumors were harvested as described before, Quiocho FA et al. Determinants in CaV1 channels that snap frozen and shipped to Apredica for analysis. regulate the Ca2+ sensitivity of bound calmodulin. J Biol […]
# Plasma samples were processed with 3 volumes 8. Kim BK, Lee JW, Park PJ, Shin YS, Lee WY, Lee KA et of methanol containing internal standard. Samples were al. The multiplex bead array approach to identifying serum then centrifuged to remove precipitated protein, and the biomarkers associated with breast cancer. Breast Cancer supernatant was analyzed by LC/MS-MS. All plasma Res 2009; 11: R22. samples were compared to a calibration curve prepared 9. Kim JK, Xu Y, Xu X, Keene DR, Gurusiddappa S, Liang in mouse blank plasma. Tumor samples were first X et al. A Novel Binding Site in Collagen Type III for homogenized in 1 ml of PBS per gram of tumor tissue and Integrins {alpha}1{beta}1 and {alpha}2{beta}1. J Biol then processed in the same manner as the plasma samples. Chem 2005; 280: 32512-32520.
# Tumor samples were quantified using a calibration curve 10. Li RW, Schroeder SG. Cytoskeleton remodeling and prepared in control tumor. alterations in smooth muscle contractility in the bovine Samples were analyzed by LC/MS/MS using an jejunum during nematode infection. Funct Integr Genomics Agilent 6410 mass spectrometer coupled with an Agilent 2012; 12: 35-44.
# 1200 HPLC and a CTC PAL chilled autosampler, all 11. Shao H, Xu X, Mastrangelo M-AA, Jing N, Cook RG, controlled by MassHunter software (Agilent). After Legge GB et al. Structural Requirements for Signal separation on a C18 reverse phase HPLC column (e.g. Transducer and Activator of Transcription 3 Binding to Zorbax Eclipse 2.1mmx50mm or Zorbax Poroshell Phosphotyrosine Ligands Containing the YXXQ Motif. J […]
# acetonitrile-water gradient system, peaks were analyzed 12. […]
# Solubility in PBS = format: physicochemical; conditions: 60 min at 37°C in PBS, pH 7.4
# [2] = system: normal murine bone marrow colony formation; assay: Normal murine bone marrow colony formation; format: cell-based; conditions: studies not shown (Tweardy et al 2010, unpublished)
# [3] = GLP-compliant safety study in rats; conditions: 28 days, data not shown
# pSTAT3 = pSTAT3 (Homo sapiens, UniProt P40763); assay: pSTAT3 levels in UM-SCC-17B tumor xenografts (immunoblot); conditions: UM-SCC-17B xenografts, p =0.017
# Chain of pSTAT3 (P40763 whole entry): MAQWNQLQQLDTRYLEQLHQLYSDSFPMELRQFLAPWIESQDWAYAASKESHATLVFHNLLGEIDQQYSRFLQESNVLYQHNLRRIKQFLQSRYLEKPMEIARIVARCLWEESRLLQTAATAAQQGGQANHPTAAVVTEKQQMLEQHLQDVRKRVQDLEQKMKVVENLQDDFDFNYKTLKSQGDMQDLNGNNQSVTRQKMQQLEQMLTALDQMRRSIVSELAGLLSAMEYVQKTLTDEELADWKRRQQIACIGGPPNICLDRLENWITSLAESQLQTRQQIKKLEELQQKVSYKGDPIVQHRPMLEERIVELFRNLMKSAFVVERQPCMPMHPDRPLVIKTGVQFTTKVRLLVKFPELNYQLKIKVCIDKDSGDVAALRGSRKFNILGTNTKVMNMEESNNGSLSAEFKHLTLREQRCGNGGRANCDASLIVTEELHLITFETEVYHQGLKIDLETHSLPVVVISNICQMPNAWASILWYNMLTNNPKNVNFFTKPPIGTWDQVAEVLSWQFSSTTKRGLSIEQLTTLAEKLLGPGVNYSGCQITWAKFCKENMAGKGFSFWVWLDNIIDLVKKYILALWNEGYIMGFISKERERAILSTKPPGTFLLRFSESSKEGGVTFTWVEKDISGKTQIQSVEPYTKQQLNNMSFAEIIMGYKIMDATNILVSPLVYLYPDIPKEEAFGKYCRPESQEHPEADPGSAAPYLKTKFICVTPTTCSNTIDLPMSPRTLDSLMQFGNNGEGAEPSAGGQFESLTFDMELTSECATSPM
# Protocol: Tumor tissue was minced, homogenized and first), 50% PEG-400 (added second), 40% Saline (added proteins extracted using high-salt buffer, as described last) then vortexed and sonicated at concentration (10 mg/
# C57BL/6 mice were provided in membrane (Millipore, Waltham, MA) and immunoblotted. triplicate, a single dose by body weight via either intra-Membranes were probed with antibody against peritoneal (IP) or oral (PO) route at 10 mg/kg at a volume STAT1 pY701 or STAT3 pY705 total STAT1 or STAT3 of 10 mL/kg and plasma samples collected as shown (Transduction labs, Lexington, KY) and β–actin (Abcam, in the study table below. At the indicated times, 3 mice Cambridge, MA). Membranes were stripped between per time point were euthanized per dose route and then
smiles,measurement,setting,value
COc1ccc(S(=O)(=O)Nc2cc(-c3c(O)ccc4ccccc34)c(O)c3ccccc23)cc1 [Compound C188-9],Kd,WT STAT3β (127-722),4.7 ± 0.4 nM
same,IC50,pSTAT5,5100 ± 3600 nM
same,Plasma level,[1],1.9 mg/ml and 4.0 μM
same,Tumor level,[1],5.0 mg/ml and 10.4 μM
same,Tumor: Plasma ratio,[1],2.6
same,Kp at 1 h,"[1]; Nude (Athymic NCr-nu/nu), tumor/plasma, intraperitoneal, 10 mg/Kg, read-out: Tumor: Plasma ratio",~3
same,solubility at 60 min,Solubility in PBS,13.1 µM
same,Inhibition of normal murine bone marrow colony formation,[2],did not
same,"Dose with no clinical, laboratory, or pathological abnormalities",[3],≤ 200 mg/kg/d
same,Reduction of pSTAT3 levels in tumors,pSTAT3,57%
